Source: ChEMBL document CHEMBL3751706, “Synthesis, biological studies and molecular dynamics of new anticancer RGD-based peptide conjugates for targeted drug delivery” (Bioorg Med Chem, 2016)
Calls of active or inactive are those of the source. No cut-off for these calls is given here.

How the values were obtained:
[1] = Chemical stability of the compound at pH 7.4 assessed as half life by LC-MS analysis; type: physicochemical; conditions: buffer
[2] = test system: NCI-H1299; assay: Cytotoxicity against human H1299 cells overexpressing alphavbeta3 integrin at >50 uM after 24 hrs by XTT assay; type: functional, cell-based
[3] = Chemical stability of the compound at pH 5.2 assessed as half life by LC-MS analysis; type: physicochemical; conditions: buffer
[4] = test system: Liver; assay: Drug metabolism in mouse liver homogenates assessed as time duration for drug release at 37 degC by LC-MS analysis; type: ADME, tissue-based; conditions: tissue homogenate
[5] = test system: B16-F10; assay: Cytotoxicity against mouse B16F10 cells overexpressing alphavbeta3 integrin at 50 to 100 uM after 24 hrs by XTT assay; type: functional, cell-based
[6] = test system: Liver; assay: Drug metabolism in mouse liver homogenates assessed as half life for drug release at 37 degC by LC-MS analysis; type: ADME, tissue-based; conditions: tissue homogenate
[7] = test system: HEK293; assay: Cytotoxicity against HEK293 […] cells non-expressing alphavbeta3 integrin up to 50 uM after 24 hrs by XTT assay; type: cell-based; conditions: human, hek293, 24 h
[8] = test system: NCI-H1299; assay: Cytotoxicity against human H1299 cells overexpressing alphavbeta3 integrin at up to 50 uM after 24 hrs by XTT assay; type: functional, cell-based
[9] = Half life in mouse liver homogenates by LC-MS analysis; type: ADME, tissue-based; conditions: liver homogenate
[10] = test system: B16-F10; assay: Cytotoxicity against mouse B16F10 cells overexpressing alphavbeta3 integrin up to 50 uM after 24 hrs by XTT assay; type: functional, cell-based
[11] = test system: HEK293; assay: Cytotoxicity against HEK293 […] cells non-expressing alphavbeta3 integrin after 24 hrs by XTT assay; type: cell-based; conditions: human, hek293, 24 h

SMILES	half-life [1]	Activity [2]	half-life [3]	Drug metabolism [4]	Activity [5]	Time [4]	t1/2 [6]	Activity [7]	Activity [8]	half-life [9]	Activity [10]	Activity [11]
N=C(N)NCCC[C@@H]1NC(=O)[C@H](CCCCNC(=O)CCCc2ccc(N(CCCl)CCCl)cc2)NC(=O)[C@@H](Cc2ccccc2)NC(=O)[C@H](CC(=O)O)NC(=O)CNC1=O	< 12 h	Active	< 12 h	metabolite_notdetected	Active							
CC[C@@]1(OC(=O)NCCCC[C@@H]2NC(=O)[C@@H](Cc3ccccc3)NC(=O)[C@H](CC(=O)O)NC(=O)CNC(=O)[C@H](CCCNC(=N)N)NC2=O)C(=O)OCc2c1cc1n(c2=O)Cc2cc3ccccc3nc2-1	> 96 h		> 96 h			10 min	5 min					
CC[C@@]1(O)C(=O)OCc2c1cc1n(c2=O)Cc2cc3ccccc3nc2-1 [CAMPTOTHECIN]	< 96 h		< 96 h					Toxic	Active	1.75 h	Active	
O=C(O)CCCc1ccc(N(CCCl)CCCl)cc1 [CHLORAMBUCIL]	3.33 h		3.33 h							1 h		
N=C(N)NCCC[C@@H]1NC(=O)[C@H](COC(=O)CCCc2ccc(N(CCCl)CCCl)cc2)NC(=O)[C@@H](Cc2ccccc2)NC(=O)[C@H](CC(=O)O)NC(=O)CNC1=O	< 12 h	Active	< 12 h		Active	45 min	5 min					Toxic
